According to patent publication US20040235080A1, “Methods and reagents for detecting endotoxin” (priority 2001, published 2004):

Key:
[1] = biological target: T1, recombinant Factor C (rFC) (Carcinoscorpius rotundicauda, UniProt Q26422); assay: recombinant Factor C (rFC) assay with different detergents and detergent concentrations; type: biochemical; settings: for Detergent concentration range for rFC inhibition / Detergent concentration range for rFC enhancing: 1 EU/ml EC-6 endotoxin, DPR-coumarin substrate, data after 30 minutes
T1 construct: made in house; host or cells: Culture supernatant, lot 031901I
T1 sequence (Q26422 26-1019): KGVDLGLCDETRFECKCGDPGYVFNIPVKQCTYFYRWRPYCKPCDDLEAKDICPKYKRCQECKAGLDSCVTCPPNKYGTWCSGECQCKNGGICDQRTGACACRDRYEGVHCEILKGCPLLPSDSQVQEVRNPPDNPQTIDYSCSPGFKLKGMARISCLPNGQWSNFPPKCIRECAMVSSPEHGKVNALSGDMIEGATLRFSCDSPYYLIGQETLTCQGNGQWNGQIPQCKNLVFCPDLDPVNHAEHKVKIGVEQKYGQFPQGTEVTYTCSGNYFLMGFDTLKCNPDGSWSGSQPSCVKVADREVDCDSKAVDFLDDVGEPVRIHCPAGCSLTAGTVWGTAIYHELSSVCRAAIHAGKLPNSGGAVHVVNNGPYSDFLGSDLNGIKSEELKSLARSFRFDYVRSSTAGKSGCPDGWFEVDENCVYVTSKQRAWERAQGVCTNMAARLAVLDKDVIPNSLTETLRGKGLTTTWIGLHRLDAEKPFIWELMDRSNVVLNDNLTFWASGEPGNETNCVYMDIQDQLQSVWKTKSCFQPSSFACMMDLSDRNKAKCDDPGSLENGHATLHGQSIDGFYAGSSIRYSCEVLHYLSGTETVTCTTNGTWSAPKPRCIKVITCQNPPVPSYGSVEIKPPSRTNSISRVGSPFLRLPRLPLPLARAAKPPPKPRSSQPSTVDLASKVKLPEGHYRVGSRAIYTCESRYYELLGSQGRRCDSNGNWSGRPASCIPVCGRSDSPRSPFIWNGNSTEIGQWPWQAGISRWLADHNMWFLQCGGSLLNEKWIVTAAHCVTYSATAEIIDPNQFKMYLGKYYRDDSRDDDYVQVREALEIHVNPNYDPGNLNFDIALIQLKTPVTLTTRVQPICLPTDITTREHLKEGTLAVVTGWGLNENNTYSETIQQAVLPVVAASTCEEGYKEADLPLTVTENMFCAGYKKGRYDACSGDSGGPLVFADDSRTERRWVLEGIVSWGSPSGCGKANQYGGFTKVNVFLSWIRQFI
Protocol: The recombinant Factor C (rFC) assay was carried out using 20 μl of each detergent (˜10× of final concentration), 150 μl of 1 EU/ml EC-6, 10 μl of rFC supernatant 031901I, 20 μl of 300 mM Tris, pH 8.0, and 20 μl of 0.55 mM DPR-coumarin substrate. The results of the assay were read at 38° C. using a Cytofluor reader set at 390/440 nm, 5 minutes per cycle, for 1 hour. The data were graphed after 30 minutes.

[2] = biological target: T2, recombinant Carcinoscorpius rotundicauda Factor C (Carcinoscorpius rotundicauda, UniProt Q26422); assay: endotoxin assay of Examples 1 and 13 (two-step and one-step); type: biochemical; settings: assay exemplified in Examples 1 and 13
T2 construct: made in house; host or cells: Sf9 insect cells, baculovirus (pFASTBAC1 / bacmid); the secreted protein is used as culture supernatant
T2 sequence (Q26422 26-1019): T1 sequence (Q26422 26-1019)
Protocol: Endotoxin was pre-incubated with culture medium containing recombinant Carcinoscorpius rotundicauda Factor C obtained from recombinant Factor C-producing Sf9 cells for 1 hour in assay buffer (30 mM Tris, pH 8.0, 30 mM NaCl, 0.3% lactose, and 0.0025% Zwittergent 3-14). The substrate N-t-Boc-Asp(Obzl)-Pro-Arg-7-Amido-4-methyl coumarin (DPR-coumarin) was added to the mixture to a final concentration of […]. The fluorescence generated from the cleavage of the substrate by activated Factor C was measured after 15-20 minutes. Results of a similar assay carried out using the substrate N-t-Boc-Val-Pro-Arg-7-Amido-4-methyl coumarin at a final concentration of 100 mM are shown in FIG. 5.
A one-step endotoxin assay can be carried out in a 96-well plate, using 100 μl each of blank and endotoxin standards. […] The plate is incubated at 37° C. for 1 hour. Excitation and emission are read at 390 and 440 nm, respectively, in a fluorescence microplate reader.

| Compound | width of the enhancing concentration range [1] | Detergent concentration range for rFC inhibition [1] | Detergent concentration range for rFC enhancing [1] | optimal concentration of the surfactant [2] |
| --- | --- | --- | --- | --- |
| CCCCCCCCS[C@@H]1O[C@H](CO)[C@@H](O)[C@H](O)[C@H]1O [OTG, n-Octyl-beta-D-thioglycopyranoside] | narrow | >=0.5% | – | – |
| CCCCCCCCCCCCOS(=O)(=O)[O-].[Na+] [SDS, sodium dodecyl sulfate] | – | >=0.0004% | – | – |
| CCCCCCCCCCCC(=O)OCCOCCOCCOCCOCCOCCOCCOCCOCCOCCOCCOCCOCCOCCOCCOCCOCCOCCOCCOCCOCC(OCCOCCOCCOCCOCCOCCOCCOCCOCCOCCOCCOCCOCCOCCOCCOCCOCCOCCOCCOCCO)C1OCC(OCCOCCOCCOCCOCCOCCOCCOCCOCCOCCOCCOCCOCCOCCOCCOCCOCCOCCOCCOCCO)C1OCCOCCOCCOCCOCCOCCOCCOCCOCCOCCOCCOCCOCCOCCOCCOCCOCCOCCOCCOCCO (centres unmarked) [Tween 20, polyoxyethylene (20) sorbitan monolaurate] | wide | >0.5% | 0.001-0.5% | – |
| CCCCCCCC/C=C\CCCCCCCC(=O)OCCOCC(OCCO)C1OCC(OCCO)C1OCCO (centres unmarked) [Tween 80, polyoxyethylene (20) sorbitan monooleate] | wide | >0.25% | 0.001-0.25% | – |
| CCCCCCCCCCCCCC[N+](C)(C)CCCS(=O)(=O)[O-] [Zwittergent 3-14, N-tetradecyl-N,N-dimethyl-3-ammonio-1-propanesulfonate] | narrow | >=0.004% | – | 0.0025% |
| Triton X-100 | narrow | >=0.008% | – | – |
